The test system of data set [1] is 3rd instar Ae. albopictus. Briefly: Room trial (31.1 m^3), single-phase station, larval bioassay. The class given is in vivo, Aedes albopictus. The protocol:
In the room trial, the test arena was scaled-up to a larger area with dimensions of 2.1 (W)×2.6 (H)×5.7 (L) m (31.1 m^3). A station was placed in the center of the room and ovicups with oak infusion and ovistrips were positioned at each corner 30 cm from the walls. Fifty gravid females were introduced for a five day test. The ovistrips and eggs were discarded and the water from each container was tested for insecticidal activity by larval bioassay, with four additional untreated cups as controls. Environmental conditions of 26-28° C., 60-75% RH, and 16L:8D photoperiod. Inhibition of emergence in the cage and room trials was analyzed against their respective controls with a t-test (P≤0.05).
All insecticidal activity tests were conducted in adult emergence units—450 ml plastic containers with a screen-covered lid and 200 ml of water (water lost via evaporation was replaced before assay). Each container held twenty 3rd instar Ae. albopictus. Test containers were incubated at 26° C. and 16L:8D photoperiod. At 2-day intervals, ground rat chow (30 mg/L) was provided as food, water lost due to evaporation was replenished, dead and emerged individuals were removed, and successful adult emergence was recorded. Incomplete emergence or adults with attached exuviae were recorded as dead.

For data set [2], the system named is Ae. albopictus. The note with it: reported as low as; Gaugler 2012, Sihuincha 2005; cited from earlier work.
Another data set relates to Ae. aegypti adults. The note with it: pyriproxyfen dusted plastic containers, public cemetery; cited from earlier work.
In another data set the test system is Aedes aegypti. The note with it: cited from earlier work.
Data set [3] concerns Ae. albopictus. In words: Room assay (31 m^3), biphasic dual treatment ADS. The class given is in vivo, Aedes albopictus. The protocol:
(§1) Larval bioassays for pyriproxyfen were conducted in adult emergence units (450 ml plastic Deli containers lid on) under the standard laboratory conditions as described above under the heading, Mosquito colony and maintenance. Each container received twenty early 3rd instar Ae. albopictus in 200 ml sample water. Larvae were inoculated gently using dropper before placing the lid on. Five slots (4 cm each) were cut into the lid with a clean blade for aeration. Larval food (30 mg yeast/L) was provided twice a week which was freshly prepared every time. An additional lab control group was setup in triplicate using […] water. The bioassays were conducted in the sequence of lab control and treatment to minimize the chance of contamination. Water lost due to the evaporation during bioassay was replenished. Adult emergence and pupal mortality were accessed after there was no live lava or pupa in the water. Incomplete emergence or adult with attached exuvia was recorded as pupal death. If lab control had mortality higher than 20% in larval or pupal stages, results were discarded and the experiment was repeated. The experiments were conducted under environmental conditions of 26-28° C., 60-75% RH and LD 16:8 h.
The test area was scaled up to a larger room (31 m^3) measuring 2.1 m in width, 5.7 m in length and 2.6 m in height. A station was placed in the center of the room and 10 Deli cups (450 mL, black painted from outside) containing 250 ml water were positioned 30 cm from the walls along each side of the room. Fifty gravid females were introduced for a 5-day test. The experiment was conducted under environmental conditions of 26-28° C., 60-75% RH and LD 16:8 h. The cups then were tested for pyriproxyfen activity using larval bioassay as described above. Ten additional untreated cups were included as controls. The pupal mortality in the room trials was analyzed against their respective controls with a t-test (P≤0.05).

Data set [4] deals with Ae. albopictus. Briefly: Larvicidal LC50 of pyriproxyfen. The note with it: unpublished data.
Another data set concerns gravid mosquitoes. In words: Field studies, biphasic ADS. The class given is in vivo.
The next data set has as its system container mosquitoes. The note with it: modified sticky trap dusted with manually grained 5% pyriproxyfen powder; cited from earlier work.
Data set [5] deals with Ae. albopictus. Briefly: Attachment and persistence of IGR formulations assay, biphasic ADS (residue analysis and larval bioassay). The class given is in vivo, Aedes albopictus. From the text: A biphasic autodissemination station (ADS) was developed to enhance attraction and contamination of gravid mosquitoes based on the previous version as described in the prior examples with modifications on the transfer chamber, which provided the attracted gravid mosquitoes a unidirectional path and biphasic formulations. The ADS consists of two main parts comprising of a water reservoir at the bottom (adapted from previous version), above which was a transfer chamber with a unidirectional cone inserted in the transfer chamber (FIGS. 12, A & B). The reservoir could hold 600 mL water, which contains dried shredded oak leaves and other materials producing attractants to the gravid mosquitoes. There were overflow protection holes located in the upper part of the reservoir as described in the previous examples. The transfer chamber was constructed with a cardboard mailing tube (101.5×155 mm; Office Depot, N.J. USA), a cotton mesh fabric (39 openings/cm^2) secured within the chamber base by hot glue, a vertical fabric band [43] (20 mm width) glued on top portion inside the transfer chamber and a horizontal flat ring (20 mm width) mounted on the top of the chamber (FIG. 12, B) to provide the base for powder band [46]. […] The spacer size was determined by preliminary study in which the gap size allowed maximum contamination of mosquitoes and minimum number of mosquitoes trapped. […]

Data set [6] deals with Ae. albopictus. Briefly: Green house assay, biphasic ADS. Type of data set: in vivo, Aedes albopictus. The protocol:
as §1
Green house with 2 bays (8×5×2.5 m each) was used for the semi-field assay. One ADS was positioned in the center of each bay and 6 Deli cups (450 mL, black painted from outside) containing 250 mL water each were setup as shown in FIG. 5 and 10% sugar solution was provided in a plastic cup with cotton wick. In each bay, 100 gravid mosquitoes (2 days post blood feeding) were released after the setup of ADS and oviposition containers. The containers were collected and sent for lab bioassay as described above after the 5 day experiment. […] The temperature of 22-30° C. and relative humidity of 45-70% were recorded during the experiment. […]
Efficacy of pyriproxyfen was expressed as mean + standard error % of pupal mortality, which was corrected with control using Abbott's formula (Abbott W. S. (1925) J Econ Entomol; 18: 265-267). […]

Data set [7] relates to 3rd instar Ae. albopictus. In words: Venereal transfer from contaminated males to females, larval bioassay. The note with it: venereally acquired pyriproxyfen transferred to water-holding containers. The class given is in vivo, Aedes albopictus. Here is the method: This experiment determined whether contaminated mosquitoes could transfer pyriproxyfen to uncontaminated individuals via mating behaviors. To ensure virginity, pupae were individually transferred to 50 ml centrifuge tubes until emergence, and then caged by gender before testing 5-7 days post-emergence. Adult males were exposed to pyriproxyfen-treated filter paper (8×10 cm Whatman No. 1) lining a 50 ml test tube. The paper was coated with 1.5 ml of corn oil as a sticker, blotted to remove excess oil, and then dusted with our pyriproxyfen powder formulation at 0.26 mg/cm of a.i. After ten minutes of exposure, males were transferred from the tube by aspirator to mating containers (450 ml capacity, 7.5 cm depth) covered with mosquito-proof mesh, and allowed to mate with uncontaminated females in pairs. […]
(§2) All insecticidal activity tests were conducted in adult emergence units—450 ml plastic containers with a screen-covered lid and 200 ml of water (water lost via evaporation was replaced before assay). […] At 2-day intervals, ground rat chow (30 mg/L) was provided as food, water lost due to evaporation was replenished, dead and emerged individuals were removed, and successful adult emergence was recorded. Incomplete emergence or adults with attached exuviae were recorded as dead.

A further data set has as its system gravid female. Briefly: Serial transfer study, biphasic ADS. The class given is in vivo. The note with it: right after it exited the ADS.
For data set [8], the system named is 3rd instar Ae. albopictus. In words: Cage experiment: transfer from females to larval habitat, larval bioassay. The class given is in vivo, Aedes albopictus. The note with it: 2.2 m^3 cage, 50 gravid females, 5 days, all 36 ovicups; powder formulation on transfer mesh. The protocol: In the cage experiment, an autodissemination station equipped with a pyriproxyfen-treated transfer mesh and 450 ml of oak leaf infusion water was centered in a cubic 2.2 m^3 cage. A 360 ml capacity plastic cup was placed in each cage corner 15 cm from the walls. Each of the four cups was filled with 200 ml tap water and oviposition paper strips aligned as described above. Controls used a station with an untreated transfer mesh. Fifty gravid females were then introduced into the cage. After five days, the test was terminated, oviposition papers and eggs discarded, and containers were removed and the water assessed for pyriproxyfen transfer by larval bioassay (see ‘insecticide bioassays’ below). There were three treatment and one control cage per experiment and the experiment was repeated three times, providing a total of 36 test and 12 control ovicups for bioassay. […]
as §2

Values joined by “and” are separate entries in the source; they are usually repeats but may differ in a detail not shown here. Equal values may be shown once. Read-outs that look alike come from different tables or passages of the source.

For `CC(COc1ccc(Oc2ccccc2)cc1)Oc1ccccn1` (stereo not drawn) [pyriproxyfen, 2-[1-methyl-2-(4-phenoxyphenoxy)ethoxy] pyridine], the pupal mortality in data set [1] (31 m^3 room, previous (uniphase) station, 4 oviposition containers with 200 ml water) is 81%; in the data set with gravid mosquitoes (field study, container with 250 ml water at 200 m) it was 100%; with Ae. albopictus [5] (24 h post exposure) it was 96+1.7% and 96.7%. In data set [1] (31.1 m^3 room), the “smallest reduction in adult emergence among ovicups” value was 75%. For the same compound, the “inhibition of adult emergence” value in data set [1] (31.1 m^3 room, 50 gravid females, 5 days, 4 ovicups, powder formulation) was 81.25%±2.39; in data set [8], 100%. Besides, the LC50 with Ae. albopictus [2] is 0.012 ppb; in the data set on Aedes aegypti (Aedes aegypti L.), 0.023 ppb; in the data set with Aedes aegypti (reported as low as, Gaugler 2012, Sihuincha 2005), 0.012 ppb; in the data set on Ae. albopictus [4], 0.012 ppb. Also, the emergence inhibition in the data set with Ae. aegypti adults is recorded as 42-98%; in the data set on Ae. albopictus [5] (up to 8 h post exposure, one mosquito per 250 mL water) it was 100%. For the same compound, the “activity relative to temephos” value in the data set on Aedes aegypti (times the activity of temephos) was 200 ×. Further, the “emergence inhibition in each cup” value with Ae. albopictus [3] (31 m^3 room, 50 gravid females, 10 oviposition cups) was found to be 100%. Further, the “pupal mortality in each of the 10 oviposition cups” value in the data set on Ae. albopictus [3] (31.1 m^3 room, 50 gravid mosquitoes, 5 days) is listed as 100%; with Ae. albopictus [3] (second prototype (oil and powder bands on one plate)), 100%. Also, the containers contaminated entry with gravid mosquitoes (different field study, 2012, variable pupal mortality) is recorded as “more than 60%”. In addition, the “distance of pyriproxyfen transfer” value in the data set on gravid mosquitoes (field study) is listed as 200 m. Also, the mortality with container mosquitoes is 40-70%. In addition, the average pupal mortality in the data set on Ae. albopictus [6] (6 containers per bay (100 m^3), 100 gravid females, 5 days) is 57.1+11.4% and 57.1%. Besides, the “containers to which pyriproxyfen was transferred (contamination rate)” value in the data set on Ae. albopictus [6] (12 containers tested) is 91.7% and 91.6%. For the same compound, the “pupal mortality of the cups with low mortality” value in the data set with Ae. albopictus [6] (cups in area with human disturbance, low RH, less shade) is 0-30% and 10-30%. In data set [7], this compound gave an inhibition of emergence of 48.33±5.87%. The “containers contaminated with 100% mortality by one gravid female” value in the data set on gravid female is “at least 3 containers”.

Source of the values: patent publication US10258027B2, “Autodissemination of an insect-growth regulator for insect management” (Rutgers, The State University of New Jersey, priority 2010, dated 2019).
